# Data as given in patent publication US9662322B2 (TEVA PHARMACEUTICAL INDUSTRIES, LTD., priority 2014, dated 2017).
# Test system: subjects with relapsing remitting multiple sclerosis (RRMS)
# Test: ALLEGRO Phase III trial: MRI endpoints
# Assay type: in vivo, human
# Protocol: MRI related secondary endpoints were the cumulative number of GdE lesions at months 12 and 24; and the cumulative number of new T2 lesions (relative to previous scan) at months 12 and 24; MRI exploratory endpoints included percent change of brain volume using SIENA.
# Additional MRI methodological details are as follows: In all patients, MRI scans were performed at 0, 12, and 24 months. Before a site could enroll study participants they were required to image a volunteer patient with definite MS twice with repositioning according to a strict study imaging protocol using scanners with a minimum field strength of 1.5 T. Fast/turbo spin echo (repetition time [TR]=2200-3500 ms, echo time [TE]=14-50/90-120 ms, echo train length=2-7, slice thickness=3 mm, and contiguous axial slices=44) sequences were used to obtain proton density and T2-weighted images. High resolution pre-contrast 3D T1-weighted sequences (TR=8-15 ms, TE=3-5 ms, inversion time=1.1 s, number of slices 160, slice thickness 1.2 mm, flip angle [FA]=10-15, orientation sagittal) were acquired for quantification of brain atrophy. Finally, T1-weighted images (1.5 T scanners: conventional spin echo sequence; TR=600-650 ms, TE=10-20 ms, slice thickness=3 mm, and contiguous axial slices=44; 3.0 T scanners: 3D sequence; TR=5-9 ms, TE=2-5 ms, FA=15, slice thickness=3 mm, and contiguous axial slices=44) were obtained 5 minutes after injection of 0.1 mmol/kg of gadolinium. A series of axial, coronal, and sagittal images was obtained to create an axial reference scan for subsequent careful repositioning of each patient at the follow-up session. Axial slices were positioned to run parallel to a line joining the most inferioanterior and inferioposterior parts of the corpus callosum.
# Image quality was reviewed at the MRI-AC using predetermined criteria. The identification of GdE and T2-hyperintense lesions was done by consensus of two experienced observers. The number of total and new GdE lesions and new/enlarging T2-hyperintense lesions were counted. The identified lesions were then outlined by trained technicians using a semiautomated segmentation technique based on local thresholding (Jim 4.0; Xinapse System, Leicester, UK) and lesion volumes were calculated automatically. Percentage brain volume changes and cross-sectional normalized brain volumes were measured on […] T1-weighted images, with Structural Image Evaluation of Normalized Atrophy (SIENA) software and a cross-sectional method (SIENAX) (available from the FMRIB Software Library, Oxford University, Oxford, UK; http://www.fmrib.ox.ac.uk/analysis/research/siena/siena).
# Analyses of the secondary MRI endpoints of the cumulative number of GdE and new/enlarging T2 lesions at 12 and 24 months involved a baseline-adjusted negative binomial regression with an “offset” employing the log of the relative exposure to adjust for early-terminated patients. The model included as covariates the number of enhancing lesions at baseline, and country or geographical region. In the case of new/enlarging T2 lesion analysis, the baseline T2 lesion volume was also added. The MRI secondary endpoints analyses were tested simultaneously with an overall type I error of 5%, using the Hochberg's step-up modification to Bonferroni's method to the two P-values obtained from the analyses of these two endpoints. The analysis of the brain atrophy endpoint involved a baseline-adjusted analysis of covariance (ANCOVA). The covariates were the number of GdE lesions at baseline and the country or region. The exploratory endpoints were all analyzed at a significance level of 5%.
# Secondary endpoints of the ALLEGRO trial included disease activity as measured by MRI, including counts of Gadolinium enhancing T1 lesions and new-T2 hyperintense lesions. […] Conventional MRI scans for new T1 hypointense lesions, and brain volume using SIENA were performed at baseline, 12 and 24 months. […]
smiles,measurement,setting,value
"CCN(C(=O)c1c(O)c2c(Cl)cccc2n(C)c1=O)c1ccccc1 [Laquinimod, laquinimod]","BA at month 12, Effect (reduction in brain atrophy)","baseline to 12 months, vs placebo",53% reduction
same,"Hypointense T1 volume, BL to M 24",change baseline to month 24,7%
same,Hypointense T1 volume month 0,month 0 (baseline),2.65
same,T2 volume month 0,month 0 (baseline),7.27
same,% BV change by previous medications: naïve,post-hoc,−0.82%
same,GdE lesion free M 12,post-hoc,69%
same,"% BV change M 24, GdE = 0, Effect","post-hoc, vs placebo",30% reduction
same,"% BV change M 24, GdE > 0, Effect","post-hoc, vs placebo",37% reduction
same,"% BV change by previous medications: naïve, Effect","post-hoc, vs placebo",38% reduction
same,"% BV change by previous medications: not naive, Effect","post-hoc, vs placebo",23% reduction
same,"BA for pts with all scans: Change BL to M 12, Effect","post-hoc, vs placebo",60%
same,"BA for pts with all scans: Change BL to M 24, Effect","post-hoc, vs placebo",57%
same,"Cum # T1 GdE by previous medications: naïve, Effect","post-hoc, vs placebo",42% reduction
same,"Cum # T1 GdE by previous medications: not naive, Effect","post-hoc, vs placebo",32% reduction
same,"Cum New T2 by previous medications: naïve, Effect","post-hoc, vs placebo",33% reduction
same,"Cum New T2 by previous medications: not naive, Effect","post-hoc, vs placebo",24% reduction
same,"GdE counts M 12, Effect","post-hoc, vs placebo",36% reduction
same,"GdE counts M 24, Effect","post-hoc, vs placebo",39% reduction
same,"GdE lesion free M 12, Effect","post-hoc, vs placebo",49% odds
same,"GdE lesion free M 24, Effect","post-hoc, vs placebo",72% odds
same,"GdE volume M 12, Effect","post-hoc, vs placebo",4.5%
same,"GdE volume M 24, Effect","post-hoc, vs placebo",4.7%
same,"New-T1 Hypointense Lesions M 12, Effect","post-hoc, vs placebo",27% reduction
same,"New-T1 Hypointense Lesions M 24, Effect","post-hoc, vs placebo",32% reduction
same,"T1 Hypointense Lesion free M 12, Effect","post-hoc, vs placebo",28% odds
same,"T1 Hypointense Lesion free M 24, Effect","post-hoc, vs placebo",47% odds
same,"T1 hypointense by previous medications: naïve, Effect","post-hoc, vs placebo",28% reduction
same,"T1 hypointense by previous medications: not naive, Effect","post-hoc, vs placebo",25% reduction
same,"T2 lesion free M 12, Effect","post-hoc, vs placebo",39% odds
same,"T2 lesion free M 24, Effect","post-hoc, vs placebo",40% odds
same,"Average MTR of T2 visible lesions, difference",vs placebo,0.330
same,"Cumulative new Hypointense T1 months 12 + 24, Effect",vs placebo,27% reduction
same,"Cumulative number of GdE lesions at months 12 and 24, Effect",vs placebo,37 % reduction
same,"Cumulative number of new/enlarging T2 lesions at 12 and 24 months, Effect",vs placebo,30% reduction
same,"Hypointense T1 volume month 12, Effect",vs placebo,~1%
same,"Hypointense T1 volume month 24, Effect",vs placebo,~1%
same,"T2 volume month 12, Effect",vs placebo,5%
same,"T2 volume month 24, Effect",vs placebo,5%
same,"Cumulative number of new/enlarging T2 lesions at 12 and 24 months, Effect","vs placebo, listed as laquinimod",30 % reduction
